In patent publication US4798823A, “New cyclosporin analogs with modified "C-9 amino acids"” (Merck & Co., Inc., priority 1987, dated 1989):

Biological target: cyclophilin (Bos taurus, UniProt P62935)
Experiment: Cyclophilin binding assay
Conditions: relative to cyclosporin A (CsA); average of multiple assays
Description: ^a This assay is described in detail by R. Handschumacher et. al.,

Chain of cyclophilin (P62935 whole entry): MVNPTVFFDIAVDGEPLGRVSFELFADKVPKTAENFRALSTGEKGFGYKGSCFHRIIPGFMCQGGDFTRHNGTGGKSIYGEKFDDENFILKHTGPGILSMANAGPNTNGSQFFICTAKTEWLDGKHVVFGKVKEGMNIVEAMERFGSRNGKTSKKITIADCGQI

CYCLOPHILIN BINDING (% OF CsA Activity): 179 % OF CsA Activity
Substance: cyclo[[](((2S,3R,[4R]4S)-N,4-dimethyl-4-(methylthiomethyl)-threonyl)-L-2-aminobutyrylsarcosyl-N-methyl-L-leucyl-L-valyl-N-methyl-L-leucyl-L-alanyl-D- alanyl-N-methyl-L-leucyl-N-methyl-L-leucyl-N-methyl-L-valyl-[]]) [(a)]
